# Source: the supplement of paper PMC10307832
# Columns and labels:
# Assay in all cases: relative viability (nuclei count vs DMSO), 5 days (fraction); higher = more cells survive
# [1] = compound: COc1cc([C@@H]2c3cc4c(cc3[C@@H](O[C@@H]3O[C@@H]5CO[C@@H](C)O[C@H]5[C@H](O)[C@H]3O)[C@H]3COC(=O)[C@H]23)OCO4)cc(OC)c1O [Etoposide] + O=C(CCCCCCC(=O)Nc1ccccc1)NO [Vorinostat] (partner 1 µM)
# Summary of the method: (§1)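 Each reported value is a median over duplicate plates. It expresses relative viability: treated-well nuclei count divided by vehicle-well nuclei count. Lung cancer cell lines in 1536-well plates were dosed by pin tool a day after seeding, alone with one drug or with a fixed anchor-drug dose plus five library-drug doses (not always all listed) in √10 steps, and nuclei were counted after 5 days.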
# [2] = compound: CC1=C(N=C(N=C1N)[C@H](CC(=O)N)NC[C@@H](C(=O)N)N)C(=O)N[C@@H]([C@H](C2=CN=CN2)OC3C(C(C(C(O3)CO)O)O)OC4C(C(C(C(O4)CO)O)OC(=O)N)O)C(=O)N[C@H](C)[C@H]([C@H](C)C(=O)N[C@@H]([C@@H](C)O)C(=O)NCCC5=NC(=CS5)C6=NC(=CS6)C(=O)NCCC[S+](C)C)O [Bleomycin] + CC(=O)Nc1cccc(-n2c(=O)n(C3CC3)c(=O)c3c(Nc4ccc(I)cc4F)n(C)c(=O)c(C)c32)c1 [Trametinib] (partner 0.02 µM); settings: main component drawn
# Summary of the method: as §1
# [3] = compound: CC1=C(N=C(N=C1N)[C@H](CC(=O)N)NC[C@@H](C(=O)N)N)C(=O)N[C@@H]([C@H](C2=CN=CN2)OC3C(C(C(C(O3)CO)O)O)OC4C(C(C(C(O4)CO)O)OC(=O)N)O)C(=O)N[C@H](C)[C@H]([C@H](C)C(=O)N[C@@H]([C@@H](C)O)C(=O)NCCC5=NC(=CS5)C6=NC(=CS6)C(=O)NCCC[S+](C)C)O [Bleomycin] + N=C(N)NC(=N)NCCc1ccccc1 [Phenformin] (partner 250 µM); settings: main component drawn
# Summary of the method: as §1
# [4] = compound: CC1=C(N=C(N=C1N)[C@H](CC(=O)N)NC[C@@H](C(=O)N)N)C(=O)N[C@@H]([C@H](C2=CN=CN2)OC3C(C(C(C(O3)CO)O)O)OC4C(C(C(C(O4)CO)O)OC(=O)N)O)C(=O)N[C@H](C)[C@H]([C@H](C)C(=O)N[C@@H]([C@@H](C)O)C(=O)NCCC5=NC(=CS5)C6=NC(=CS6)C(=O)NCCC[S+](C)C)O [Bleomycin] + Cc1nc(NC(=O)N2CCC[C@H]2C(N)=O)sc1-c1ccnc(C(C)(C)C(F)(F)F)c1 [Alpelisib] (partner 2 µM); settings: main component drawn
# Summary of the method: as §1
Cell Line,relative viability ([1]; first compound 0.01 µM),relative viability ([1]; first compound 0.03162 µM),relative viability ([1]; first compound 0.1 µM),relative viability ([1]; first compound 0.3162 µM),relative viability ([1]; first compound 1 µM),relative viability ([2]; first compound 0.01 µM),relative viability ([2]; first compound 0.03162 µM),relative viability ([2]; first compound 0.1 µM),relative viability ([2]; first compound 0.3162 µM),relative viability ([2]; first compound 1 µM),relative viability ([3]; first compound 0.01 µM),relative viability ([3]; first compound 0.03162 µM),relative viability ([3]; first compound 0.1 µM),relative viability ([3]; first compound 0.3162 µM),relative viability ([3]; first compound 1 µM),relative viability ([4]; first compound 0.01 µM),relative viability ([4]; first compound 0.03162 µM),relative viability ([4]; first compound 0.1 µM),relative viability ([4]; first compound 0.3162 µM),relative viability ([4]; first compound 1 µM)
201T,0.905,1.03,0.811,0.887,0.485,0.697,0.731,0.673,0.598,0.555,0.447,0.436,0.47,0.361,0.364,0.956,0.949,0.96,0.862,0.753
A549,–,–,–,–,–,–,–,–,–,–,0.143,0.139,0.444,0.0518,0.0392,0.593,0.44,0.314,0.0966,0.0714
A-427,0.864,0.864,0.761,0.625,0.309,0.607,0.558,0.417,0.261,0.212,0.253,0.349,0.269,0.175,0.113,0.983,1.05,1.05,0.48,0.203
ABC-1,1.07,1.57,0.571,0.55,0.223,–,–,–,–,–,0.241,0.234,0.258,0.239,0.199,0.883,1.03,0.615,0.425,0.298
BEN,0.542,0.722,–,0.559,0.616,1.03,0.959,1.05,0.863,0.849,0.247,0.277,0.251,0.24,0.235,1.01,0.921,0.937,0.762,0.738
CAL-12T,0.798,0.782,0.724,0.403,0.213,0.339,0.326,0.294,0.174,0.18,0.474,0.466,0.297,0.175,0.163,0.666,0.883,0.433,0.235,0.244
COR-L23,0.48,0.487,0.352,0.214,0.13,0.432,0.518,0.303,0.133,0.129,0.316,0.292,0.219,0.123,0.123,0.516,0.495,0.262,0.0744,0.0882
COR-L 105,1.09,0.856,0.731,0.727,0.734,0.459,0.417,0.419,0.369,0.332,0.49,0.394,0.399,0.315,0.35,0.95,0.949,0.794,0.413,0.317
Calu-6,–,–,–,–,–,–,–,–,–,–,–,–,–,–,–,0.63,0.603,0.333,0.181,0.177
ChaGo-K-1,0.756,0.736,0.413,0.353,0.197,0.775,0.744,0.704,0.547,0.366,0.383,0.39,0.384,0.297,0.217,–,–,–,–,–
EBC-1,–,–,–,–,–,–,–,–,–,–,–,–,–,–,–,0.777,0.718,0.696,0.501,0.404
EKVX,0.543,0.746,0.512,0.444,0.253,0.396,0.298,0.301,0.196,0.158,0.234,0.255,0.196,0.2,0.157,0.894,0.738,0.683,0.345,0.37
EMC-BAC-2,0.636,0.428,0.239,0.153,0.139,–,0.6,0.535,0.306,0.29,0.46,0.468,0.391,0.275,0.217,0.647,0.643,0.653,0.355,0.232
EPLC-272H,0.415,0.464,0.426,0.267,0.235,0.302,0.256,0.207,0.193,0.184,0.247,0.286,0.228,0.173,0.116,0.889,0.847,0.797,0.308,0.176
H3255,0.788,0.774,0.458,0.278,0.314,0.575,0.506,0.629,0.485,0.357,0.35,0.372,0.367,0.301,0.301,0.532,0.69,0.508,0.335,0.305
HARA,0.443,0.573,0.586,0.125,0.095,0.899,0.325,0.448,0.347,0.328,0.432,0.503,0.493,0.361,0.178,0.682,0.784,0.818,0.415,0.373
HCC-15,0.766,0.894,0.779,0.275,0.178,0.348,0.338,0.365,0.209,0.186,0.418,0.457,0.387,0.16,0.129,0.79,0.852,0.751,0.35,0.236
